Test results from patent publication US4384118A, “4-(3-Iodopropargyloxy) pyrimidine derivatives” (SPOFA, spojene podniky pro zdravotnickou vyrobu, priority 1980, dated 1983).
≈ marks a conversion by molar mass, not a printed value. Read-outs that look alike come from different tables or passages of the source. Each block holds one compound with its values, some of them ahead of it.

Columns and labels:
Type in all cases: cell-based
[1] = system: Trichophyton Mentagrophytes; assay: Minimum inhibitory concentration vs Trichophyton Mentagrophytes; conditions: for activity against Trichophyton mentagrophytes compared with known antimycotic agents: comparison with best antimycotic agents previously known; for activity against Trichophyton mentagrophytes (in words): same range as the minimum inhibitory concentrations in Aspergillus niger, 0.3 to 0.7 μg/ml; for MIC: Table A, TM = Trichophyton Mentagrophytes, read-out: Minimum Inhibitory Concentrations
Source text: (§1) For comparative purposes, three of the compounds of formula (1) were compared with Clotrimazole and Haloprogine, well known prior art antimycotic compounds. Comparisons of minimum inhibitory concentration in μg/ml. were made with respect to four strains of […].

Trichophyton rubrum = assay: Minimum inhibitory concentration vs Trichophyton rubrum; conditions: Table B
Procedure: (§2) Additionally, certain compounds of the invention were evaluated with respect to other mold species. Thus, for example, 2-ethylthio-4-(3 iodopropargyloxy) pyrimidine was evaluated with respect to the species identified in Table B, below and the noted minimum inhibitory cencentrations determined: […]

Microsporum Canis = assay: Minimum inhibitory concentration vs Microsporum Canis; conditions: Table B
Procedure: as §2

Sporotrichum cejpii = assay: Minimum inhibitory concentration vs Sporotrichum cejpii; conditions: Table B
Procedure: as §2

Microsporum gypseum = assay: Minimum inhibitory concentration vs Microsporum gypseum; conditions: Nannizzia gypsea, Table B
Procedure: as §2

[2] = system: Trichophyton schoenleinii; assay: Minimum inhibitory concentration vs Trichophyton schoenleinii; conditions: Table B
Procedure: as §2

Epidermophyton floccosum = assay: Minimum inhibitory concentration vs Epidermophyton floccosum; conditions: Table B
Procedure: as §2

Keratinomyces ajelloi = assay: Minimum inhibitory concentration vs Keratinomyces ajelloi; conditions: Table B
Procedure: as §2

Trichophyton verrucosum = assay: Minimum inhibitory concentration vs Trichophyton verrucosum; conditions: Table B
Procedure: as §2

Aspergillus Niger = assay: Minimum inhibitory concentration vs Aspergillus Niger
Source text: as §1

Candida Alicans = assay: Minimum inhibitory concentration vs Candida Alicans; conditions: Table A, CA = Candida Alicans; read-out: Minimum Inhibitory Concentrations
Source text: as §1

Sacharomyces Pastorianus = assay: Minimum inhibitory concentration vs Sacharomyces Pastorianus; conditions: Table A, SP = Sacharomyces Pastorianus; read-out: Minimum Inhibitory Concentrations
Source text: as §1

[3] = Aspergillus niger, read-out: minimum inhibitory concentration
[4] = Table A, AN = Aspergillus Niger, read-out: Minimum Inhibitory Concentrations

- MIC (Aspergillus Niger; [3]): 0.03 µg/mL (≈ 0.0857 µM)
Compound: CCSc1ncc(OC)c(OCC#CI)n1 [2-ethylthio-5-methoxy-4-(3-iodopropargyloxy) pyrimidine]

- MIC (Aspergillus Niger; [3]): 0.01 µg/mL (≈ 0.026 µM)
Compound: CSc1ncc(Br)c(OCC#CI)n1 [2-methylthio-5-bromo-4-(3-iodopropargyloxy) pyrimidine]

- MIC (Aspergillus Niger; [3]): 0.07 µg/mL (≈ 0.2 µM)
Compound: CCOc1cnc(SC)nc1OCC#CI [2-methylthio-5-ethoxy-4-(3-iodopropargyloxy) pyrimidine]

- MIC (Aspergillus Niger; [4]): 0.01 µg/mL (≈ 0.0275 µM)
- MIC [1]: 0.07 µg/mL (≈ 0.192 µM)
- MIC (Candida Alicans): 3.1 µg/mL (≈ 8.51 µM)
- MIC (Sacharomyces Pastorianus): 0.3 µg/mL (≈ 0.824 µM)
Compound: CCCSc1ncc(OC)c(OCC#CI)n1 [Compound I, 2 propylthio5-methoxy-4-(3 iodoprogargyloxy) pyrimidine]

The remaining lines, values behind:

Compound: COc1cnc(N)nc1OCC#CI [2-amino-5-methoxy-4-(3-iodopropargyloxy) pyrimidine]
- activity against Trichophyton mentagrophytes compared with known antimycotic agents [1]: comparable with that of the best antimycotic agents previously known
- activity against Trichophyton mentagrophytes (in words) [1]: lies in the same range

Compound: CCSc1nccc(OCC#CI)n1 [2-ethylthio-4-(3 iodopropargyloxy) pyrimidine]
- MIC (Trichophyton rubrum): 0.07 µg/mL (≈ 0.219 µM)
- MIC (Microsporum Canis): 0.15 µg/mL (≈ 0.469 µM)
- MIC (Sporotrichum cejpii): 0.3 µg/mL (≈ 0.937 µM)
- MIC (Microsporum gypseum): 0.3 µg/mL (≈ 0.937 µM)
- MIC [2]: 0.03 µg/mL (≈ 0.0937 µM)
- MIC (Epidermophyton floccosum): 0.3 µg/mL (≈ 0.937 µM)
- MIC (Keratinomyces ajelloi): 0.3 µg/mL (≈ 0.937 µM)
- MIC (Trichophyton verrucosum): 0.15 µg/mL (≈ 0.469 µM)

Compound: CSc1nccc(OCC#CI)n1 [2-methylthio-4-(3-iodopropargyloxy) pyrimidine]
- activity against Trichophyton mentagrophytes compared with known antimycotic agents [1]: comparable with that of the best antimycotic agents previously known
- activity against Trichophyton mentagrophytes (in words) [1]: lies in the same range

Compound: COc1cnc(SC)nc1OCC#CI [2-methylthio-5-methoxy-4-(3-iodopropargyloxy) pyrimidine]
- activity against Trichophyton mentagrophytes compared with known antimycotic agents [1]: comparable with that of the best antimycotic agents previously known
- activity against Trichophyton mentagrophytes (in words) [1]: lies in the same range

Compound: Clc1ccccc1C(c1ccccc1)(c1ccccc1)n1ccnc1 [Clotrimazole, reference compound]
- MIC (Aspergillus Niger; [4]): 3.1 µg/mL (≈ 8.99 µM)
- MIC [1]: 0.03 µg/mL (≈ 0.087 µM)
- MIC (Candida Alicans): 0.3 µg/mL (≈ 0.87 µM)
- MIC (Sacharomyces Pastorianus): 3.1 µg/mL (≈ 8.99 µM)

Compound: C=CCSc1nccc(OCC#CI)n1 [Compound II, 2allylthio-4-(3-iodopropargyloxy) pyrimidine]
- MIC (Aspergillus Niger; [4]): 0.3 µg/mL (≈ 0.903 µM)
- MIC [1]: 0.07 µg/mL (≈ 0.211 µM)
- MIC (Candida Alicans): 0.7 µg/mL (≈ 2.11 µM)
- MIC (Sacharomyces Pastorianus): 0.15 µg/mL (≈ 0.452 µM)

Compound: Clc1cc(Cl)c(OCC#CI)cc1Cl [Haloprogine, reference compound]
- MIC [1]: 0.6 µg/mL (≈ 1.66 µM)
- MIC (Candida Alicans): 1.2 µg/mL (≈ 3.32 µM)
